Results taken from patent US6543181B1, “Fruit fly attractant compositions” (Iowa State University Research Foundation, Inc., priority 2001, dated 2003).

How the values were obtained:
[1] = tested on: Drosophila melanogaster antennae; design: key to the marks not given beside the values
[2] = tested on: Drosophila melanogaster adult fruit flies; test: Attraction-trapant behavioral bioassay (cup traps in screen cages); format: in vivo; conditions: for Catches per day (mean ± S.E.): 100-150 flies released
Procedure: Three different sizes of screen cages (w×h×l: 26 cm×26 cm×30 cm; 48×61×61; and 88×36×46) were used for the trapping experiments. Trapping experiments were carried out either in the laboratories, or in nearby green houses.
The attraction-trapant assay traps were constructed from cylindrical, clear plastic jelly cups (4.0 cm I.D. at top, 3.0 cm I.D. bottom; 2.5 cm high) with a tightly fitting paper lid. The lids were pre-drilled with a hole having a diameter of about 2 mm, which was the only aperture through which volatiles from candidate attractants could emanate, and also the only entrance through which attracted flies could enter the trap chamber. In all experiments, a 1-cm-long, 0.5-cm-diameter piece of cotton dental wick was used as the substrate onto which different compositions of potential attractants were loaded for testing, and then the wick was placed in the bottom of the cup and the lid then sealed in position at the beginning of testing.
Traps containing a series of compositions to be compared were tested in a randomized, complete-block design, with one replicate of a treatment series deployed per cage. The traps were placed in an array with usually approximately 15 cm between traps. If three treatments were to be compared (including control), the array took the form of a triangle. If there were four treatments, then the four trap-cups formed a square.
No glue or toxicant was used inside the traps, and captures depended on the ability of the attractant-trapant composition to both attract the fruit flies as well as retain them in the chamber by keeping them from wandering back to the entrance hole on the lid and exiting through it. During these assays, observations of the fruit flies' behavior were often made, and they could routinely be observed flying slowly around the cage before descending to one of the traps on the floor of the cage, landing on it, and then walking more or less directly to the hole on the lid and entering the trap.
[…] […] During this period the trap positions were rotated at several hour intervals in order to minimize any possible trap position effects.

[3] = Table 3, 10 mg in cup trap, traps checked daily for 5 days
[4] = Table 4, ratios of acetic acid and 2-phenylethanol, total lure 10 mg, no water added, checked daily for 5 days

SMILES | Catches per day (mean ± S.E.) [2, 3] | also measured
C=CCc1ccc(OC)c(OC)c1 [1,2-dimethoxy-4-(2-propenyl)-benzene] |  | EAG activity [1]: +++
OCCc1ccccc1 [2-phenylethanol] | 3.15 ± 1.63 | Catches per day (mean ± S.E.) ([2]; Table 3, 1 mg in cup trap, traps checked daily for 5 days): 0.5 ± 0.29; Catches per day (mean ± S.E.) ([2]; Table 3, 5 mg in cup trap, traps checked daily for 5 days): 1.25 ± 0.63; Catches per day (mean ± S.E.) [2, 4]: 0 ± 0
CC(=O)OCCc1ccccc1 [2-phenylethyl acetate] | 1.87 ± 0.81 | 
CC(=O)O [Acetic acid] |  | Catches per day (mean ± S.E.) [2, 4]: 3.0 ± 1.08; Trap catches ([2]; Table 13, effect of ethyl acetate, 8 replicates): 0.25 ± 0.16
CCOC(=O)C=Cc1ccccc1 [Ethyl cinnamate] | 0.75 ± 0.49 | 
CCCCOC(C)=O [butyl acetate] |  | EAG activity [1]: +++
CCOC(=O)c1ccccc1 [ethyl benzoate] | 0.25 ± 0.16 | 
CCOC(=O)c1ccccc1O [ethyl salicylate] | 0.37 ± 0.18 | 
CCOC(=O)Cc1ccccc1 [ethylphenyl acetate] | 1.5 ± 0.5 | 
CC(=O)OCc1ccccc1 [phenylmethyl acetate] | 0.5 ± 0.27 | 
